Structures can show the parent of a compound that is named as a salt. Where two headings read alike, the source gives them in different places.
Key:
[1] = target: T1, rat TRPV1 (Rattus norvegicus, UniProt O35433); assay: Block of capsaicin-induced Ca2+ influx, rat assay (rTRPV1/HEK293, FLIPR); type: cell-based
T1 construct: expressed in transfected cells; host or cells: HEK293
In short: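 HEK293 cells expressing rat TRPV1, Fluo-3 loaded, preincubated 30 min with compound in 20 μM Ca2+ buffer (serial three-fold dilutions, usually from 10 μM, duplicate). Capsaicin-evoked fluorescence change over 100 s measured on FLIPR; IC50 by non-linear regression, averaged across runs.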

[2] = target: T2, human TRPV1 (Homo sapiens, UniProt Q8NER1); assay: Block of capsaicin-induced Ca2+ influx, human assay (hTRPV1/HEK293, FLIPR); type: cell-based; details: HEK293 cells transfected with human TRPV1; 150 nM capsaicin challenge; mean; > value = solubility limit in assay medium
T2 construct: expressed in transfected cells; host or cells: HEK293
T2 sequence (Q8NER1 whole entry): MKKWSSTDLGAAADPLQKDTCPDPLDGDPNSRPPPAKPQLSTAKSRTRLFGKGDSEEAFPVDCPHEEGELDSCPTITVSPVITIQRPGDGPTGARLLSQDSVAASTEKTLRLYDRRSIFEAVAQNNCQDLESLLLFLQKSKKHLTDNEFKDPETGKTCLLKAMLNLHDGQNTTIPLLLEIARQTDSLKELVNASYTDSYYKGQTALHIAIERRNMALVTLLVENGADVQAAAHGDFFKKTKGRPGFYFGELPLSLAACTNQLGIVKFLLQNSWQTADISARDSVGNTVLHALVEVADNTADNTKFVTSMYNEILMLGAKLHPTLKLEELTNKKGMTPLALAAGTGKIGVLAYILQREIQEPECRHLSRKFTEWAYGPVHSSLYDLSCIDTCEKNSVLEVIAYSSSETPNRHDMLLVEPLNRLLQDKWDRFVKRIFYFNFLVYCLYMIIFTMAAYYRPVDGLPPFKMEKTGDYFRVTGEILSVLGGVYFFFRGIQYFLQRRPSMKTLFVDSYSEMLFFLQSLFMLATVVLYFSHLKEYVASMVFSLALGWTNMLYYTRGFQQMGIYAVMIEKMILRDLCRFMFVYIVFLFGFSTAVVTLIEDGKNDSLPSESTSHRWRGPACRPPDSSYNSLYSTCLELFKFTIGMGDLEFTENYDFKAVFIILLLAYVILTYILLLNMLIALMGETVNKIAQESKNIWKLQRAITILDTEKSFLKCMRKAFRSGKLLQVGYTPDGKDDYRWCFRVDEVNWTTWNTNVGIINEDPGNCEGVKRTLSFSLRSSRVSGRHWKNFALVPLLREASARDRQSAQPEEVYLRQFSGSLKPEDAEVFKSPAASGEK

[3] = HEK293 cells transfected with rat TRPV1, capsaicin challenge, mean, > value = solubility limit in assay medium, read-out: Rat IC50

T1 sequence (O35433 whole entry): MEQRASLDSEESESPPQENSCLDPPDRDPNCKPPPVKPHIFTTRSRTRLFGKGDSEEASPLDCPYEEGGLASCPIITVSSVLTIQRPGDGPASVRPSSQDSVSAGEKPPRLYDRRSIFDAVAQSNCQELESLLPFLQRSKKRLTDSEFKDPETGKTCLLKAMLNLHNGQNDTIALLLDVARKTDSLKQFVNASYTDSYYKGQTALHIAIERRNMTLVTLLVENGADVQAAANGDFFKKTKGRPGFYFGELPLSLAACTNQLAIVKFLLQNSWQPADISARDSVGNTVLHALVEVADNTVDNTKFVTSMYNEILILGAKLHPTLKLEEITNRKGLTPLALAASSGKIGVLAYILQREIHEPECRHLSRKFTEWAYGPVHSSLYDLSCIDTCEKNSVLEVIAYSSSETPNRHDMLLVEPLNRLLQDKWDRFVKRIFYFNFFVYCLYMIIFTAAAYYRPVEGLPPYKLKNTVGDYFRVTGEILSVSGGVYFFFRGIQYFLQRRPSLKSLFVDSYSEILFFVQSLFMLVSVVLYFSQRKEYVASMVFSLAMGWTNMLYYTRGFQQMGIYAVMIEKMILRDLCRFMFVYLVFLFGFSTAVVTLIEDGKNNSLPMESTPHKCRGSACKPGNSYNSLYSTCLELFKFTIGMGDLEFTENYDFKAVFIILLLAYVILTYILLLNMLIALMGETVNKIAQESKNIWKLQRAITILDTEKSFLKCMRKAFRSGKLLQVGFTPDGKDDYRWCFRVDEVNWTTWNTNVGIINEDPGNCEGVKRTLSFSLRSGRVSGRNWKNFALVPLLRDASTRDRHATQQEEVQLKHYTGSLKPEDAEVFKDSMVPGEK

SMILES	IC50 [1, 3]	IC50 [2]	IC50 [1]
CC(Nc1nc(Nc2ccc(C(F)(F)F)cc2)c2nc(Cc3c(Cl)cccc3Cl)sc2n1)c1ccccn1 (stereo not drawn) [Example 87, 2-(2,6-Dichlorobenzyl)-N^5-(1-pyridin-2-ylethyl)-N^7-[4-(trifluoromethyl)phenyl][1,3]thiazolo[5,4-d]pyrimidine-5,7-diamine]	21 nM	50 nM	
CCN1CCCC1CNc1nc(Nc2ccc(C(F)(F)F)cc2)c2nc(Cc3c(Cl)cccc3Cl)sc2n1 (stereo not drawn) [Example 88, 2-(2,6-Dichlorobenzyl)-N^5-[(1-ethylpyrrolidin-2-yl)methyl]-N^7-[4-(trifluoromethyl)phenyl][1,3]thiazolo[5,4-d]pyrimidine-5,7-diamine]	1040 nM	964 nM	
FC(F)(F)c1ccc(Nc2nc(NCC3CCCCN3)nc3sc(Cc4c(Cl)cccc4Cl)nc23)cc1 (stereo not drawn) [Example 90, 2-(2,6-Dichlorobenzyl)-N^5-(piperidin-2-ylmethyl)-N^7-[4-(trifluoromethyl)phenyl][1,3]thiazolo[5,4-d]pyrimidine-5,7-diamine hydrochloride salt]	9710 nM	6050 nM	
FC(F)(F)c1ccc(Nc2nc(NCC3CCCNC3)nc3sc(Cc4c(Cl)cccc4Cl)nc23)cc1 (stereo not drawn) [Example 91, 2-(2,6-Dichlorobenzyl)-N^5-(piperidin-3-ylmethyl)-N^7-[4-(trifluoromethyl)phenyl][1,3]thiazolo[5,4-d]pyrimidine-5,7-diamine hydrochloride salt]	3160 nM	4050 nM	
FC(F)(F)c1ccc(Nc2nc(NCC3CCNCC3)nc3sc(Cc4c(Cl)cccc4Cl)nc23)cc1 [Example 92, 2-(2,6-Dichlorobenzyl)-N^5-(piperidin-4-ylmethyl)-N^7-[4-(trifluoromethyl)phenyl][1,3]thiazolo[5,4-d]pyrimidine-5,7-diamine hydrochloride salt]	4340 nM	4720 nM	
FC(F)(F)c1cnc(Nc2ncnc3sc(Cc4c(Cl)cccc4Cl)nc23)cn1 [Example 93, [2-(2,6-Dichloro-benzyl)-thiazolo[5,4-d]pyrimidin-7-yl]-(5-trifluoromethyl-pyrazin-2-yl)-amine]	231 nM	276 nM	
FC(F)(F)c1ccc(Nc2ncnc3sc(Cc4c(Cl)cccc4Cl)nc23)nc1 [Example 94, [2-(2,6-Dichloro-benzyl)-thiazolo[5,4-d]pyrimidin-7-yl]-(5-trifluoromethyl-pyridin-2-yl)-amine]	246 nM	924 nM	
FC(F)(F)c1ccc(Nc2ncnc3sc(Cc4ccccc4C(F)(F)F)nc23)nc1 [Example 95, 2-[2-(Trifluoromethyl)benzyl]-N-[5-(trifluoromethyl)pyridin-2-yl][1,3]thiazolo[5,4-d]pyrimidin-7-amine]	119 nM	292 nM	
FC(F)(F)c1ccc(Nc2ncnc3sc(Cc4ccccc4Cl)nc23)nc1 [Example 96, [2-(2-Chloro-benzyl)-thiazolo[5,4-d]pyrimidin-7-yl]-(5-trifluoromethyl-pyridin-2-yl)-amine]	224 nM	466 nM	
Cc1nc(Nc2ccc(C(F)(F)F)cn2)c2nc(Cc3c(Cl)cccc3Cl)sc2n1 [Example 97, [2-(2,6-Dichloro-benzyl)-5-methyl-thiazolo[5,4-d]ovrimidin-7-yl]-(5-trifluoromethyl-hyridin-2-yl)-amine]	158 nM	1030 nM	
N#Cc1ccccc1Cc1nc2c(Nc3ccc(C(F)(F)F)cc3)ncnc2s1 [Example 100, 2-[7-(4-Trifluoromethyl-phenylamino)-thiazolo[5,4-d]pyrimidin-2-ylmethyl]-benzonitrile]	62 nM	126 nM	
COc1nc(Nc2ccc(C(F)(F)F)cc2)c2nc(Cc3c(Cl)cccc3Cl)sc2n1 [Example 101, [2-(2,6-Dichloro-benzyl)-5-methoxy-thiazolo[5,4-d]pyrimidin-7-yl]-(4-trifluoromethyl-phenyl)-amine]	34 nM	207 nM	
CC(C)Oc1nc(Nc2ccc(C(F)(F)F)cc2)c2nc(Cc3c(Cl)cccc3Cl)sc2n1 [Example 102, [2-(2,6-Dichloro-benzyl)-5-isopropoxy-thiazolo[5,4-d]pyrimidin-7-yl]-(4-trifluoromethyl-phenyl)-amine]	74 nM	188 nM	
CC(C)[Si](Sc1ccccc1Cc1nc2c(Nc3ccc(C(F)(F)F)cc3)ncnc2s1)(C(C)C)C(C)C [Example 104, (4-Trifluoromethyl-phenyl)-[2-(2-triisopropylsilanylsulfanyl-benzyl)-thiazolo[5,4-d]pyrimidin-7-yl]-amine]		125 nM	69 nM
FC(F)(F)c1ccc(Nc2ncnc3sc(Cc4ccccc4-c4ccccc4)nc23)cc1 [Example 105, (2-Biphenyl-2-ylmethylthiazolo[5,4-d]pyrimidin-7-yl)-(4-trifluoromethylphenyl)-amine]	1230 nM	1640 nM	
Oc1ccccc1-c1ccccc1Cc1nc2c(Nc3ccc(C(F)(F)F)cc3)ncnc2s1 [Example 106, 2′-[7-(4-Trifluoromethylphenylamino)-thiazolo[5,4-d]pyrimidin-2-ylmethyl]-biphenyl-2-ol]	343 nM	1010 nM	
NC(=O)c1ccc(-c2ccccc2Cc2nc3c(Nc4ccc(C(F)(F)F)cc4)ncnc3s2)cc1 [Example 107, 2′-[7-(4-Trifluoromethylphenylamino)-thiazolo[5,4-d]pyrimidin-2-ylmethyl]-biphenyl-4-carboxylic acid amide]	1530 nM	6960 nM	
FC(F)(F)c1ccc(Nc2ncnc3[nH]c(Cc4c(Cl)cccc4Cl)nc23)cc1 [Example 109, [8-(2,6-Dichloro-benzyl)-9H-purin-6-yl]-(4-trifluoromethyl-phenyl)-amine trifluoroacetic acid salt]	116 nM	716 nM	
